From PubChem BioAssay (NCI)
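Grown in 96-well plates, cells were treated for 48 hours with each compound at five concentrations. Insufficient inhibition: endpoint recorded as highest concentration tested. TGI marks complete inhibition of growth.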

Key:
Experiment in all cases: NCI tumour cell line growth inhibition, 48 h
[1] = system: 786-0 renal
[2] = system: A498 renal
[3] = system: A549 NSCLC
[4] = system: BT-549 breast
[5] = system: CAKI-1 renal
[6] = system: COLO 205 colon
[7] = system: DU-145 prostate
[8] = system: EKVX NSCLC
[9] = system: HCC-2998 colon
[10] = system: HCT-116 colon
[11] = system: HCT-15 colon
[12] = system: HL-60(TB) leukemia
[13] = system: HOP-92 NSCLC
[14] = system: HS 578T breast
[15] = system: HT29 colon
[16] = system: IGROV1 ovarian
[17] = system: K-562 leukemia
[18] = system: KM12 colon
[19] = system: LOX IMVI melanoma
[20] = system: M14 melanoma
[21] = system: MALME-3M melanoma
[22] = system: MCF7 breast
[23] = system: MDA-MB-231 breast
[24] = system: MDA-MB-435
[25] = system: MDA-N
[26] = system: MOLT-4 leukemia
[27] = system: NCI-H226 lung
[28] = system: NCI-H460 lung
[29] = system: NCI-H522 lung
[30] = system: NCI/ADR-RES ovarian
[31] = system: OVCAR-3 ovarian
[32] = system: OVCAR-4 ovarian
[33] = system: OVCAR-5 ovarian
[34] = system: OVCAR-8 ovarian
[35] = system: PC-3 prostate
[36] = system: RPMI-8226 leukemia
[37] = system: RXF 393 renal
[38] = system: SF-268 CNS
[39] = system: SF-539 CNS
[40] = system: SK-MEL-2 melanoma
[41] = system: SK-MEL-28 melanoma
[42] = system: SK-MEL-5 melanoma
[43] = system: SK-OV-3 ovarian
[44] = system: SN12C renal
[45] = system: SNB-19 CNS
[46] = system: SNB-75 CNS
[47] = system: SR leukemia
[48] = system: SW-620 colon
[49] = system: T-47D breast
[50] = system: TK-10 renal
[51] = system: U251 CNS
[52] = system: UACC-257 melanoma
[53] = system: UACC-62 melanoma
[54] = system: UO-31 renal
[55] = system: ACHN renal
[56] = system: CCRF-CEM leukemia
[57] = system: HOP-62 NSCLC
[58] = system: NCI-H23 lung
[59] = system: SF-295 CNS

Measured: TGI

CCOC(=O)CCC(NC(=O)c1ccc(Nc2nc3ccccc3nc2C(=O)OCC)s1)C(=O)OCC (stereo not given)
> 100 µM: [1] | [2] | [3] | [4] | [5] | [6] | [7] | [8] | [9] | [10] | [11] | [12] | [13] | [14] | [15] | [16] | [17] | [18] | [19] | [20] | [21] | [22] | [23] | [24] | [25] | [26] | [27] | [28] | [29] | [30] | [31] | [32] | [33] | [34] | [35] | [36] | [37] | [38] | [39] | [40] | [41] | [42] | [43] | [44] | [45] | [46] | [47] | [48] | [49] | [50] | [51] | [52] | [53] | [54]

CC(C)(CO)CNc1cc(Cl)nc(N)n1
> 100 µM: [1] | [2] | [3] | [55] | [4] | [5] | [56] | [6] | [7] | [8] | [9] | [10] | [11] | [12] | [57] | [13] | [14] | [15] | [16] | [17] | [18] | [19] | [21] | [22] | [23] | [24] | [25] | [26] | [27] | [58] | [28] | [29] | [30] | [31] | [32] | [33] | [34] | [35] | [36] | [37] | [38] | [59] | [39] | [40] | [41] | [42] | [44] | [46] | [47] | [48] | [49] | [50] | [51] | [52] | [53] | [54]
